Reference: patent US4363793A, “Diagnostic radiopharmaceuticals for localization in target tissues exhibiting a regional pH shift relative to surrounding tissues” (State University of New York, priority 1980, dated 1982)

Assays:
[1] = cited from earlier work
[2] = n-octanol-aqueous medium partition coefficient pH correlation; assay type: physicochemical
Description: The n-octanol-aqueous medium partition coefficients of the compound are readily measured in accordance with standard practice in the prior art. Briefly, such measurements include the steps of dissolving a known amount of the compound in an aqueous buffer of a predetermined pH and extracting the buffer solution with a known amount of n-octanol until an equilibrium of distribution of the compound between the aqueous and n-octanol phases occurs. The concentration of the compound in both phases is then measured by suitable analytical means, such as ultraviolet spectrophotometry; the partition coefficient being the ratio of the two measured concentrations.
For the purposes of evaluating a plurality of radioactive compounds for use in the novel method of the present invention, the n-octanol-aqueous medium partition coefficients of the compounds were measured in the following manner. The radioactive compound was mixed with 1.0 ml of n-octanol and 1.0 ml of buffer of the desired predetermined pH. The radioactivity of this mixture was counted, and the mixture was placed in a water bath shaker at 37° C. for 2 hours. After centrifugation at 3,000 rpm for 5 minutes, the n-octanol layer was separated and its radioactivity counted. The partition coefficient of the compound was calculated by the following equation: [formula]

[3] = Organ distribution of Se-75 labeled compound in rats after intravenous injection; assay type: in vivo, Spraque-Dawley male rats; conditions: rat, i.v.; for % dose/organ, blood: blood assumed 7% of body weight; for % dose/organ, muscle: muscle assumed 40% of body weight
Description: FIGS. 2 and 3 respectively show the relative concentration of Se-75 labeled di-β-(piperidinoethyl)-selenide and di-β-(morpholinoethyl)-selenide in rat brains at several time intervals after an intravenous injection of a dose of the respective compounds into the rat. As is shown in FIG. 3, and also in Table 4, two minutes after an intravenous injection of Se-75 labeled di-β-(morpholinoethyl)-selenide, the brain uptake of the radiopharmaceutical compound reaches a value of 3.19%. […] The terms uptake, % uptake or % dose are used to describe the percentage of the radiopharmaceutical compound contained in a given organ or tissue as compared to the total initial dose. The numerical values in FIGS. 2 and 3 and Tables 3 and 4 represent such percentages.
Studies of distribution of the radiopharmaceutical compounds of the present invention in rats, the results of which are reflected in FIGS. 2 and 3 and Tables 3 and 4, were conducted according to standard practice in the pharmacological sciences, and therefore need not be described here in great detail. Nevertheless, for the sake of complete understanding of the present invention, some experimental details of these studies are briefly described below:
Spraque-Dawley male rats (220-300 g) were injected intravenously (femoral vein) with a 0.2 ml solution (0.5-2 micro Ci) under light ether anaesthesia. At different time periods after the injection, the animals were sacrificed and organs of interest were excised and counted in a well counter. Percent dose was estimated by comparison of tissue counts to suitably diluted aliquots of the injected material. Total activities in blood and muscle were calculated by assuming that they are 7% and 40% of the body weight respectively.

For `Cc1c(I)c(=O)n(-c2ccccc2)n1C` [iodoantipyrine], the “penetration of brain tissue (in words)” value ([1]; in vivo) is listed as “able to penetrate brain tissue” and the “retention in brain (in words)” value ([1]; within one hour after penetration) is listed as “almost completely leaves the brain by diffusion”.

In the case of `C1CCN(CC[Se]CCN2CCCCC2)CC1` [di-β-(piperidinoethyl)-selenide], the “partition coefficient pH dependence (in words)” value ([2]; n-octanol-aqueous medium, pH 6.6 to 7.6) is reported as “much higher partition coefficient pH dependence”, the “partition coefficient / lipid solubility at the pH of the blood (in words)” value ([2]; pH 7.4, morpholinoethyl vs piperidinoethyl selenide) is reported as “less lipid soluble at the pH of the blood” and the “penetration of the blood brain barrier (in words)” value [3] is reported as “capable of penetrating the blood brain barrier”. For the same compound, the “% dose/organ, heart” value ([3]; 2 min) was 3.04%, the “% dose/organ, kidney” value ([3]; 2 min) was 7.14% and the “% dose/organ, liver” value ([3]; 2 min) was 12.0%. For the same compound, the “% dose/organ, lung(2)” value ([3]; 2 min) was 20.0%, the “% dose/organ, pancreas” value ([3]; 2 min) was 0.62% and the “% dose/organ, spleen” value ([3]; 2 min) was 0.51%. The “% dose/organ, brain (brain uptake)” value ([3]; 2 min (morpholinoethyl: average of 5 samples)) was 1.09%, the “% dose/organ, blood” value ([3]; 2 min) was 4.58% and the “% dose/organ, muscle” value ([3]; 2 min) was 7.39%. For the same compound, the “% dose/organ, brain (brain uptake)” value ([3]; 30 min) was 1.49%, the “% dose/organ, heart” value ([3]; 30 min) was 0.89% and the “% dose/organ, kidney” value ([3]; 30 min) was 9.21%. For the same compound, the “% dose/organ, liver” value ([3]; 30 min) was 14.3%, the “% dose/organ, lung(2)” value ([3]; 30 min) was 2.83% and the “% dose/organ, pancreas” value ([3]; 30 min) was 1.42%. The “% dose/organ, spleen” value ([3]; 30 min) was 1.31%, the “% dose/organ, blood” value ([3]; 30 min) was 0.87% and the “% dose/organ, muscle” value ([3]; 30 min) was 13.4%. The “% dose/organ, brain (brain uptake)” value ([3]; 1 hr) was 1.53%, the “% dose/organ, heart” value ([3]; 1 hr) was 0.35% and the “% dose/organ, kidney” value ([3]; 1 hr) was 4.43%. For the same compound, the “% dose/organ, liver” value ([3]; 1 hr) was 16.6%, the “% dose/organ, lung(2)” value ([3]; 1 hr) was 1.92% and the “% dose/organ, pancreas” value ([3]; 1 hr) was 1.07%. For the same compound, the “% dose/organ, spleen” value ([3]; 1 hr) was 0.90%, the “% dose/organ, blood” value ([3]; 1 hr) was 0.75% and the “% dose/organ, muscle” value ([3]; 1 hr) was 16.1%. The “% dose/organ, brain (brain uptake)” value ([3]; 2 hr) was 1.63%, the “% dose/organ, heart” value ([3]; 2 hr) was 0.19% and the “% dose/organ, kidney” value ([3]; 2 hr) was 2.89%. For the same compound, the “% dose/organ, liver” value ([3]; 2 hr) was 15.9%, the “% dose/organ, lung(2)” value ([3]; 2 hr) was 0.85% and the “% dose/organ, pancreas” value ([3]; 2 hr) was 0.84%. The “% dose/organ, spleen” value ([3]; 2 hr) was 1.03%, the “% dose/organ, blood” value ([3]; 2 hr) was 0.65% and the “% dose/organ, muscle” value ([3]; 2 hr) was 12.0%. The “% dose/organ, brain (brain uptake)” value ([3]; 4 hr) was 1.32%, the “% dose/organ, heart” value ([3]; 4 hr) was 0.16% and the “% dose/organ, kidney” value ([3]; 4 hr) was 1.53%. For the same compound, the “% dose/organ, liver” value ([3]; 4 hr) was 16.0%, the “% dose/organ, lung(2)” value ([3]; 4 hr) was 0.82% and the “% dose/organ, pancreas” value ([3]; 4 hr) was 0.60%. For the same compound, the “% dose/organ, spleen” value ([3]; 4 hr) was 0.61%, the “% dose/organ, blood” value ([3]; 4 hr) was 0.59% and the “% dose/organ, muscle” value ([3]; 4 hr) was 11.9%. The “% dose/organ, brain (brain uptake)” value ([3]; 6 hr) was 1.18%, the “% dose/organ, kidney” value ([3]; 6 hr) was 0.64% and the “% dose/organ, liver” value ([3]; 6 hr) was 7.66%. The “% dose/organ, spleen” value ([3]; 6 hr) was 0.34%, the “% dose/organ, blood” value ([3]; 6 hr) was 0.51% and the “% dose/organ, muscle” value ([3]; 6 hr) was 11.5%. For the same compound, the “% dose/organ, brain (brain uptake)” value ([3]; 24 hr) was 0.91%, the “% dose/organ, heart” value ([3]; 24 hr) was 0.03% and the “% dose/organ, kidney” value ([3]; 24 hr) was 0.38%. For the same compound, the “% dose/organ, liver” value ([3]; 24 hr) was 4.79%, the “% dose/organ, lung(2)” value ([3]; 24 hr) was 0.31% and the “% dose/organ, pancreas” value ([3]; 24 hr) was 0.11%. The “% dose/organ, spleen” value ([3]; 24 hr) was 0.10%, the “% dose/organ, blood” value ([3]; 24 hr) was 0.20% and the “% dose/organ, muscle” value ([3]; 24 hr) was 2.81%. The “% dose/organ, brain (brain uptake)” value ([3]; 3 day) was 0.16%, the “% dose/organ, kidney” value ([3]; 3 day) was 0.12% and the “% dose/organ, liver” value ([3]; 3 day) was 1.72%. For the same compound, the “% dose/organ, spleen” value ([3]; 3 day) was 0.01%, the “% dose/organ, blood” value ([3]; 3 day) was 0.08% and the “% dose/organ, muscle” value ([3]; 3 day) was 0.40%.
